Read-outs that look alike come from different tables or passages of the source.
How the values were obtained:
[1] = system: isolated aortas from rats; experiment: Ex vivo tolerance evaluation (vascular response of isolated aortas from treated rats); assay type: in vivo, rat; settings: for EC50 at 100 mg/kg: Rattus norvegicus, vascular response to Compound (6), 3 h after last administration
Description: (§1) Thoracic aortas from male New Zealand rabbits or male Sprague Dawley (SD) were used. The aortas were placed immediately in Krebs-HEPES buffer (pH 7.4; composition mM: NaCl 130.0, KCl 3.7, NaHCO3 14.9, KH2PO4 1.2, MgSO4.7H2O 1.2, Glucose 11.0, HEPES 10.0, CaCl2.2H2O 1.6). Connective tissue was removed and aortas were cut into ring segments (4-5 mm in length). Each ring was placed in a 5 mL tissue bath filled with Krebs-HEPES buffer (37° C.) aerated with 95% O2 and 5% CO2 and was attached to a force transducer (Grass FT03), connected to a BIOPAC MP150 System for measurement of the isometric tension. Preparations were allowed to equilibrate for 1 h at a resting tension of 2 g for rabbit aortas and 1 g for rat aortas with changes of the buffer every 15 min. Then the rings were stimulated by exposure to 90 mM KCl (3 times) with intervening washings.
(§2) Rat aorta. After equilibration, rat aortas were precontracted with KCl (90 mM) and, when the contraction was stable, a cumulative concentration-response curve to acetylcholine (ACh, 0.01-100 μM) was added. After washout, the rings were precontracted again with KCl (90 mM). When a steady-state level of contraction was obtained, a cumulative concentration-response curve to the tested compounds (0.01-100 μM) was obtained.
(§3) Data analysis. Results are given as mean±SEM. Vascular responses are expressed as percentage relaxation and plotted vs concentration. The sensitivity of isolated aorta to different vasodilators is expressed as the concentration that elicited 50% of the maximal responses (EC50). Responses are quantified in terms of EC50 and Emax (maximal vasodilating effect) values, obtained from the concentration-response curve by nonlinear curve fitting, using GraphPad software.
Tolerance to nitrate was further investigated assessing the vascular effects of Compound (6) following repeated treatment compared with 5-ISMN. The vascular response to the compound itself was assessed on isolated aortas from rats orally treated for 5 days with Compound (6) (100 mg/kg). The vascular response was performed as described in Example 6.
Vascular responses were performed 1 h (ISMN) or 3 h (Compound (6)) after the last administration, the concentrations of tested compound that elicited the 50% of the maximal responses (EC50) are shown in Table 4.

[2] = system: rat aorta, endothelial-dependent vasodilation (response to ACh); experiment: Endothelial dysfunction evaluation (vascular response to acetylcholine after treatment); assay type: in vivo; settings: for Emax at 100 mg/kg: Rattus norvegicus, response to ACh, read-out: % relaxation (Emax)
Description: as §1, §2, §3
Endothelial-dependent vasodilation (vascular response to acetylcholine, ACh) was assessed following 5-day treatment with Compound (6) (100 mg/kg) or 5-ISMN (30 mg/kg). A relaxant response to ACh indicated the presence of a functional endothelium. The vascular response was performed as described in Example 6.

[3] = system: rat L-NAME-induced hypertension; experiment: In vivo tolerance evaluation (L-NAME-induced hypertension after 5-day oral treatment); settings: for Delta vs basal (mmHg): peak effect 3 hours
Description: (§4) Fasted male SD rats (250-300 g, n=3-5 per group), obtained from Harlan Italy (Correzzana, Milan, Italy) were orally treated with tested compounds or vehicle (DMSO:Methocel 1% 2/98 v/v) in a total volume of 4 ml/kg by gavage. At each time point (1, 3, 6 and 24 h) animals were deeply anesthetized with Zoletil® 100 (3 mg/kg), given intramuscularly. Thereafter, a pressure catheter (Samba Sensors, Harvard Apparatus, UK) was introduced into the common carotid artery for central blood pressure measurement. Pressure transducer was connected to a personal computer, in order to allow real time monitor of the pressure tracing. After 10 minutes of basal recording, L-NAME (50 mg/kg) was administered intraperitoneally and the effect on SBP monitored. When the SBP stabilized (5 minutes without variations) the recording was stopped. To further confirm that functional activity was NO-dependent, at each time point blood ^15N-nitrite levels were measured following the procedure described in Example 12.
To investigate whether the compound (6) induced nitrate tolerance, as observed for most of the drugs belonging to the nitrate class, the L-NAME-induced hypertension rat model described in Example 7 was performed following a repeated oral treatment. Rats were orally treated for 5 days with vehicle, compound (6) (100 mg/kg) or 5-ISMN (30 mg/kg). […] The experiments were performed at the peak effect (1 hour for 5-ISMN and 3 hours for Compound (6)), results are reported in Table 3.

[4] = system: rat L-NAME-induced hypertension; experiment: Rat L-NAME-induced hypertension, systolic blood pressure after single oral dose; assay type: in vivo; settings: for Delta vs basal (mmHg): Comp. (6) 100 mg/kg oral, L-NAME 50 mg/kg i.p.
Description: To assess the in vivo NO-dependent activity, Compound (6) was evaluated for systolic blood pressure (SBP) reduction efficacy in a rat model of NO-deprivation induced by L-NAME and compared with 5-ISMN.
as §4

[5] = system: methoxamine-precontracted rabbit aortic rings; experiment: In vitro NO-mediated vasorelaxation; assay type: cell-based
Description: The ability of compound (6) disclosed in example 1, to induce in vitro vasorelaxation, which is a functional marker of NO release, was assessed on methoxamine-precontracted rabbit aortic rings.
as §1
Rabbit aorta. […]
Data analysis. […] Vascular responses are expressed as percentage relaxation and plotted vs concentration. […] Responses are quantified in terms of EC50 and Emax (maximal vasodilating effect) values, obtained from the concentration-response curve by nonlinear curve fitting, using GraphPad software.

[6] = compound (6) 100 mg/kg oral, 5 days

COC1=C(OC)C(=O)C(CCCCCCCCCCO[N+](=O)[O-])=C(C)C1=O [Compound (6), 10-(4,5-dimethoxy-2-methyl-3,6-dioxocyclohexa-1,4-dienyl)decyl nitrate]
EC50 at 100 mg/kg ([1]; acute, aortas of rats given Compound (6) 100 mg/kg): 110 ± 20 nM
EC50 at 100 mg/kg ([1]; repeated (5 days oral) Compound (6) 100 mg/kg): 180 ± 20 nM
vascular response of aortas from treated animals vs vehicle arteries, in words [1, 6]: showed the same sensitivity to Compound (6) as those arteries of animals treated only with vehicle
effect on endothelial-dependent vasorelaxation, in words ([2]; Compound (6) 100 mg/kg, 5-day treatment): did not modify endothelial-dependent vasorelaxation
Emax at 100 mg/kg ([2]; 120 h, repeated (5-day) Comp. (6) 100 mg/kg): 84.3 ± 7.5%
Emax at 100 mg/kg ([2]; acute, Comp. (6) 100 mg/kg): 89.6 ± 4.5%
Delta vs basal (mmHg) ([3]; acute treatment, Comp. (6) 100 mg/kg oral): 14 ± 3.8 mmHg
efficacy against L-NAME-induced hypertension after 5-day treatment (nitrate tolerance), in words [3, 6]: counteracted L-NAME-induced hypertension after 5-day oral treatment
Delta vs basal (mmHg) ([3]; repeated (5 days) oral treatment, Comp. (6) 100 mg/kg): 27.8 ± 4 mmHg
Delta vs basal (mmHg) ([4]; 1 hour): 53.5 ± 4.5 mmHg
Delta vs basal (mmHg) ([4]; 3 hours): 14 ± 3.8 mmHg
Delta vs basal (mmHg) ([4]; 6 hours): 38 ± 3.6 mmHg
Delta vs basal (mmHg) ([4]; 24 hours): 67.7 ± 16.8 mmHg
time over which L-NAME induced SBP increase was prevented after treatment ([4]; Compound (6) 100 mg/kg, single oral administration): 6 h
relaxation at the highest concentration tested ([5]; 100 μM): 89±1%
EC50 ([5]; Oryctolagus cuniculus, methoxamine (3 μM) precontracted, functional endothelium, read-out: EC50 (concentration-dependent relaxation)): 4700 ± 200 nM

From US9079821B2, “Quinone based nitric oxide donating compounds” (NICOX S.A., priority 2011, dated 2015)
